Read-outs that look alike come from different tables or passages of the source.
What was measured:
Mushroom tyrosinase [1] = biological target: T1, Mushroom tyrosinase (Agaricus bisporus, UniProt C7FF04); assay: Tyrosinase assay (spectrophotometry, L-tyrosine substrate); type: biochemical
Protocol: Tyrosinase activity was determined by spectrophotometry, with minor modifications. First, 80 μL of 0.1 M potassium phosphate buffer (pH 6.6), 20 μL of sample dissolved in dimethyl sulfoxide at the concentrations needed (final concentrations 100–500 μg/mL), and 50 μL of L-tyrosine buffer (1.5 mM) solutions were mixed. Then, 50 μL of mushroom tyrosinase solution (200 unit/mL in phosphate buffer) was added to each mixture, which was then incubated at 25 °C for 15 min.
The results were expressed as mean ± standard deviation (SD), and were repeated three to five times. The inhibitory concentration (IC50) was calculated by log-Probit analysis.

cyclooxygenase-1 (COX-1) = system: cyclooxygenase-1 (COX-1); design: method as in PMID 14646327; conditions: in vitro; cited from earlier work
Mushroom tyrosinase [2] = biological target: T1, Mushroom tyrosinase; assay: Tyrosinase assay (spectrophotometry, L-tyrosine substrate); type: biochemical; remark: listed apart in the source

T1 sequence (C7FF04 2-392): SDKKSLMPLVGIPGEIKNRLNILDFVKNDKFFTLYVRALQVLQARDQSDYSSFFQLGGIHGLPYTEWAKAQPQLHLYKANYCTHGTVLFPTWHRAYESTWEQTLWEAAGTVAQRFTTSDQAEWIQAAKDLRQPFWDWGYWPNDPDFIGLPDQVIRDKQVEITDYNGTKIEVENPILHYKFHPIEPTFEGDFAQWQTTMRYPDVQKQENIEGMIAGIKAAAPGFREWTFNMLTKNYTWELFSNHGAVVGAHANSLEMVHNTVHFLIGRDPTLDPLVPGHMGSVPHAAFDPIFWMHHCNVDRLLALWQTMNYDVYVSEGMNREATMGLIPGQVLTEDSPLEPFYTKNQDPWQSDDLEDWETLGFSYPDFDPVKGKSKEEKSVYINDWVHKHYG
T1 sequence (G1K3P4 1-150 partner): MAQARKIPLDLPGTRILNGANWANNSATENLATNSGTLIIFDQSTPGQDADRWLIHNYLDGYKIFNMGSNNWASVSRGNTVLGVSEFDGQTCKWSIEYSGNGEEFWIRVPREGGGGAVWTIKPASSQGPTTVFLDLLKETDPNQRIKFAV

For `O=C(O)c1ccc(O)c(O)c1` [Protocatechuic acid (1), protocatechuic acid], the inhibition at 100 µg/mL (Mushroom tyrosinase [1]) was under 1%.
For `O=c1c(O)c(-c2ccc(O)c(O)c2)oc2cc(O)cc(O)c12` [Quercetin (7), quercetin], the “Inhibition (%)” value (Mushroom tyrosinase [1]; 100 μg/mL, Table 4) is given as 99.7 ± 0.28%, the “Inhibition (%)” value (Mushroom tyrosinase [1]; 100 μg/mL, Table 4, listed as quercetin) is given as “over 95%” and the “inhibition of cyclooxygenase-1 (COX-1)” value (cyclooxygenase-1 (COX-1)) is given as 52% ± 2.
For `COc1cc(C(=O)O)ccc1O` [Vanilic acid (4), vanillic acid], the inhibition at 100 µg/mL (Mushroom tyrosinase [1]) was under 1%.
`O=C(O)[C@H]1O[C@@H](Oc2c(-c3ccc(O)cc3)oc3cc(O)cc(O)c3c2=O)[C@H](O)[C@@H](O)[C@@H]1O` [Kaempferol 3-O-glucuronide (6), kaempferol 3-O-glucuronide] showed an inhibition at 100 µg/mL (Mushroom tyrosinase [1]) of under 1%.
Compound `O=c1c(O)c(-c2ccc(O)cc2)oc2cc(O)cc(O)c12` [Kaempferol (8), kaempferol] has an inhibition at 100 µg/mL (Mushroom tyrosinase [1]) of 30 ± 1.97%.
`OC[C@H]1O[C@@H](Oc2ccc(O)cc2)[C@H](O)[C@@H](O)[C@@H]1O` [Arbutin, arbutin, reference compound] gave an inhibition at 100 µg/mL (Mushroom tyrosinase [1]) of 86 ± 1.6%, an inhibition at 500 µg/mL (Mushroom tyrosinase [1]) of 98.2 ± 0.9% and an inhibition at 500 µg/mL (Mushroom tyrosinase [1]; read-out: Inhibition % (500 μg/mL)) of 92.3 ± 2.2%. It also gave an inhibition at 10 µg/mL (Mushroom tyrosinase [2]) of 13.7 ± 1.8% and an inhibition at 50 µg/mL (Mushroom tyrosinase [2]) of 63.8 ± 0.1%.
`O=C(O)c1ccc(O)cc1` [p-Hydroxybenzoic acid (2), p-hydroxybenzoic acid] showed an inhibition at 100 µg/mL (Mushroom tyrosinase [1]) of 8.3 ± 4.03%.
Compound `O=C(/C=C/c1ccc(O)c(O)c1)O[C@@H]1C[C@](O)(C(=O)O)C[C@@H](O)[C@H]1O` [Chlorogenic acid (3), chlorogenic acid] has an inhibition at 100 µg/mL (Mushroom tyrosinase [1]) of under 1%.
With `O=C(O)/C=C/c1ccc(O)c(O)c1` [Caffeic acid (5), caffeic acid] the inhibition at 100 µg/mL (Mushroom tyrosinase [1]; 100 μg/mL, Table 4, read-out: Inhibition (%)) was under 1%.

Source: article PMC6155296, “Screening of Peruvian Medicinal Plants for Tyrosinase Inhibitory Properties: Identification of Tyrosinase Inhibitors in Hypericum laricifolium Juss” (Molecules : A Journal of Synthetic Chemistry and Natural …, 2017)
